Where a name gives a salt, the structure may show the parent alone.
Columns and labels:
coronary sinus out flow = test: Effects on coronary sinus out flow; assay type: in vivo, mongrel adult dogs
How it was run: (§1)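 Intravenous brachial dosing of test compound or active placebo in anesthetized, thoracotomized dogs weighing about 10 kg. Coronary sinus outflow was measured with an electromagnetic flowmeter and oxygen tension with a pO2 electrode after Morawitz cannulation of the sinus.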

coronary blood flow = conditions: marketed antianginal drug; cited from earlier work
[1] = test system: coronary sinus oxygen tension; test: Effects on coronary sinus oxygen tension; assay type: in vivo, mongrel adult dogs
How it was run: as §1

heart rate = test: Effects on heart rate; assay type: in vivo, mongrel adult dogs
How it was run: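 Adult mongrel dogs of both sexes were anesthetized with pentobarbital and thoracotomized. Test agents, suspended or dissolved in 0.2% CMC, pH 6 HCl solution or saline, were injected intravenously into the brachial vein. Hemodynamic and coronary sinus parameters were then recorded.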

[2] = test system: arterial mean blood pressure; test: Effects on arterial mean blood pressure; assay type: in vivo, mongrel adult dogs
How it was run: (§2)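 In pentobarbital-anesthetized open-chest mongrels, aortic root flow and carotid-cannula blood pressure are monitored after i.v. administration.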

aortic blood flow = test: Effects on aortic blood flow; assay type: in vivo, mongrel adult dogs
How it was run: as §2

## COc1ccc(CN2CCNCC2)c(OC)c1OC [Vastarel F, 2,3,4-trimethoxybenzylpiperazine dihydrochloride, reference compound]
Coronary sinus out flow; 0.2 mg/kg i.v., 1 min
  Changes(%) of basal values, coronary sinus out flow: +1.0%
Coronary sinus out flow; 0.2 mg/kg i.v., 5 min
  Changes(%) of basal values, coronary sinus out flow: 0%
Coronary sinus out flow; 0.2 mg/kg i.v., 10 min
  Changes(%) of basal values, coronary sinus out flow: 0%
Coronary sinus out flow; 0.2 mg/kg i.v., 20 min
  Changes(%) of basal values, coronary sinus out flow: 0%
Coronary sinus out flow; 0.2 mg/kg i.v., 30 min
  Changes(%) of basal values, coronary sinus out flow: 0%
Coronary sinus out flow; 0.2 mg/kg i.v., 40 min
  Changes(%) of basal values, coronary sinus out flow: 0%
Coronary sinus out flow; 0.2 mg/kg i.v., imm.
  Changes(%) of basal values, coronary sinus out flow: +4.0%
Coronary sinus out flow; 0.6 mg/kg i.v., 1 min
  Changes(%) of basal values, coronary sinus out flow: +2.5%
Coronary sinus out flow; 0.6 mg/kg i.v., 5 min
  Changes(%) of basal values, coronary sinus out flow: +0.5%
Coronary sinus out flow; 0.6 mg/kg i.v., 10 min
  Changes(%) of basal values, coronary sinus out flow: 0%
Coronary sinus out flow; 0.6 mg/kg i.v., 20 min
  Changes(%) of basal values, coronary sinus out flow: 0%
Coronary sinus out flow; 0.6 mg/kg i.v., 30 min
  Changes(%) of basal values, coronary sinus out flow: 0%
Coronary sinus out flow; 0.6 mg/kg i.v., 40 min
  Changes(%) of basal values, coronary sinus out flow: 0%
Coronary sinus out flow; 0.6 mg/kg i.v., imm.
  Changes(%) of basal values, coronary sinus out flow: +6.0%
Coronary sinus out flow; 2.0 mg/kg i.v., 1 min
  Changes(%) of basal values, coronary sinus out flow: -3.0%
Coronary sinus out flow; 2.0 mg/kg i.v., 5 min
  Changes(%) of basal values, coronary sinus out flow: +3.0%
Coronary sinus out flow; 2.0 mg/kg i.v., 10 min
  Changes(%) of basal values, coronary sinus out flow: +9.0%
Coronary sinus out flow; 2.0 mg/kg i.v., 20 min
  Changes(%) of basal values, coronary sinus out flow: +4.0%
Coronary sinus out flow; 2.0 mg/kg i.v., 30 min
  Changes(%) of basal values, coronary sinus out flow: 0%
Coronary sinus out flow; 2.0 mg/kg i.v., imm.
  Changes(%) of basal values, coronary sinus out flow: -13.0%
Coronary blood flow
  depressant effect on the heart: depressant effect on the heart
[1]; 0.2 mg/kg i.v., 1 min
  Changes(%) of basal values, coronary sinus oxygen tension: +1.0%
[1]; 0.2 mg/kg i.v., 5 min
  Changes(%) of basal values, coronary sinus oxygen tension: 0%
[1]; 0.2 mg/kg i.v., 10 min
  Changes(%) of basal values, coronary sinus oxygen tension: 0%
[1]; 0.2 mg/kg i.v., 20 min
  Changes(%) of basal values, coronary sinus oxygen tension: 0%
[1]; 0.2 mg/kg i.v., 30 min
  Changes(%) of basal values, coronary sinus oxygen tension: 0%
[1]; 0.2 mg/kg i.v., imm.
  Changes(%) of basal values, coronary sinus oxygen tension: +3.0%
[1]; 0.6 mg/kg i.v., 1 min
  Changes(%) of basal values, coronary sinus oxygen tension: +5.5%
[1]; 0.6 mg/kg i.v., 5 min
  Changes(%) of basal values, coronary sinus oxygen tension: +1.0%
[1]; 0.6 mg/kg i.v., 10 min
  Changes(%) of basal values, coronary sinus oxygen tension: 0%
[1]; 0.6 mg/kg i.v., 20 min
  Changes(%) of basal values, coronary sinus oxygen tension: 0%
[1]; 0.6 mg/kg i.v., 30 min
  Changes(%) of basal values, coronary sinus oxygen tension: 0%
[1]; 0.6 mg/kg i.v., imm.
  Changes(%) of basal values, coronary sinus oxygen tension: +9.0%
[1]; 2.0 mg/kg i.v., 1 min
  Changes(%) of basal values, coronary sinus oxygen tension: +1.5%
[1]; 2.0 mg/kg i.v., 5 min
  Changes(%) of basal values, coronary sinus oxygen tension: +2.0%
[1]; 2.0 mg/kg i.v., 10 min
  Changes(%) of basal values, coronary sinus oxygen tension: +5.0%
[1]; 2.0 mg/kg i.v., 20 min
  Changes(%) of basal values, coronary sinus oxygen tension: +3.0%
[1]; 2.0 mg/kg i.v., 30 min
  Changes(%) of basal values, coronary sinus oxygen tension: 0%
[1]; 2.0 mg/kg i.v., imm.
  Changes(%) of basal values, coronary sinus oxygen tension: +3.0%
[1]; until after 5-20 minutes, i.v.
  minimum increase in oxygen tension: 3-5%
Heart rate; 0.2 mg/kg i.v., 1 min
  Changes(%) of basal values, heart rate: 0%
Heart rate; 0.2 mg/kg i.v., 5 min
  Changes(%) of basal values, heart rate: -1.5%
Heart rate; 0.2 mg/kg i.v., 10 min
  Changes(%) of basal values, heart rate: -1.0%
Heart rate; 0.2 mg/kg i.v., 20 min
  Changes(%) of basal values, heart rate: 0%
Heart rate; 0.2 mg/kg i.v., 30 min
  Changes(%) of basal values, heart rate: 0%
Heart rate; 0.2 mg/kg i.v., imm.
  Changes(%) of basal values, heart rate: +1.5%
Heart rate; 0.6 mg/kg i.v., 1 min
  Changes(%) of basal values, heart rate: +0.5%
Heart rate; 0.6 mg/kg i.v., 5 min
  Changes(%) of basal values, heart rate: -0.5%
Heart rate; 0.6 mg/kg i.v., 10 min
  Changes(%) of basal values, heart rate: 0%
Heart rate; 0.6 mg/kg i.v., 20 min
  Changes(%) of basal values, heart rate: -1.0%
Heart rate; 0.6 mg/kg i.v., 30 min
  Changes(%) of basal values, heart rate: 0%
Heart rate; 0.6 mg/kg i.v., imm.
  Changes(%) of basal values, heart rate: +1.5%
Heart rate; 2.0 mg/kg i.v., 1 min
  Changes(%) of basal values, heart rate: -2.0%
Heart rate; 2.0 mg/kg i.v., 5 min
  Changes(%) of basal values, heart rate: -2.0%
Heart rate; 2.0 mg/kg i.v., 10 min
  Changes(%) of basal values, heart rate: -1.5%
Heart rate; 2.0 mg/kg i.v., 20 min
  Changes(%) of basal values, heart rate: -1.5%
Heart rate; 2.0 mg/kg i.v., 30 min
  Changes(%) of basal values, heart rate: -1.5%
Heart rate; 2.0 mg/kg i.v., imm.
  Changes(%) of basal values, heart rate: +5.5%
[2]; 0.2 mg/kg i.v., 1 min
  Changes (%) of basal values, arterial mean blood pressure: -1.0%
[2]; 0.2 mg/kg i.v., 5 min
  Changes (%) of basal values, arterial mean blood pressure: -2.0%
[2]; 0.2 mg/kg i.v., 10 min
  Changes (%) of basal values, arterial mean blood pressure: -1.5%
[2]; 0.2 mg/kg i.v., 20 min
  Changes (%) of basal values, arterial mean blood pressure: 0%
[2]; 0.2 mg/kg i.v., 30 min
  Changes (%) of basal values, arterial mean blood pressure: 0%
[2]; 0.2 mg/kg i.v., imm.
  Changes (%) of basal values, arterial mean blood pressure: -3.0%
[2]; 0.6 mg/kg i.v., 1 min
  Changes (%) of basal values, arterial mean blood pressure: -2.0%
[2]; 0.6 mg/kg i.v., 5 min
  Changes (%) of basal values, arterial mean blood pressure: -1.5%
[2]; 0.6 mg/kg i.v., 10 min
  Changes (%) of basal values, arterial mean blood pressure: -1.0%
[2]; 0.6 mg/kg i.v., 20 min
  Changes (%) of basal values, arterial mean blood pressure: 0%
[2]; 0.6 mg/kg i.v., 30 min
  Changes (%) of basal values, arterial mean blood pressure: 0%
[2]; 0.6 mg/kg i.v., imm.
  Changes (%) of basal values, arterial mean blood pressure: -6.0%
[2]; 2.0 mg/kg i.v., 1 min
  Changes (%) of basal values, arterial mean blood pressure: -35.0%
[2]; 2.0 mg/kg i.v., 5 min
  Changes (%) of basal values, arterial mean blood pressure: -2.0%
[2]; 2.0 mg/kg i.v., 10 min
  Changes (%) of basal values, arterial mean blood pressure: -1.0%
[2]; 2.0 mg/kg i.v., 20 min
  Changes (%) of basal values, arterial mean blood pressure: -1.0%
[2]; 2.0 mg/kg i.v., 30 min
  Changes (%) of basal values, arterial mean blood pressure: -2.0%
[2]; 2.0 mg/kg i.v., imm.
  Changes (%) of basal values, arterial mean blood pressure: -55.0%
Aortic blood flow; 0.2 mg/kg i.v., 1 min
  Changes (%) of basal values, aortic blood flow: 0%
Aortic blood flow; 0.2 mg/kg i.v., 5 min
  Changes (%) of basal values, aortic blood flow: 0%
Aortic blood flow; 0.2 mg/kg i.v., 10 min
  Changes (%) of basal values, aortic blood flow: 0%
Aortic blood flow; 0.2 mg/kg i.v., 20 min
  Changes (%) of basal values, aortic blood flow: 0%
Aortic blood flow; 0.2 mg/kg i.v., 30 min
  Changes (%) of basal values, aortic blood flow: 0%
Aortic blood flow; 0.2 mg/kg i.v., imm.
  Changes (%) of basal values, aortic blood flow: 0%
Aortic blood flow; 0.6 mg/kg i.v., 1 min
  Changes (%) of basal values, aortic blood flow: +0.5%
Aortic blood flow; 0.6 mg/kg i.v., 5 min
  Changes (%) of basal values, aortic blood flow: 0%
Aortic blood flow; 0.6 mg/kg i.v., 10 min
  Changes (%) of basal values, aortic blood flow: -1.0%
Aortic blood flow; 0.6 mg/kg i.v., 20 min
  Changes (%) of basal values, aortic blood flow: -1.0%
Aortic blood flow; 0.6 mg/kg i.v., 30 min
  Changes (%) of basal values, aortic blood flow: 0%
Aortic blood flow; 0.6 mg/kg i.v., imm.
  Changes (%) of basal values, aortic blood flow: +1.5%
Aortic blood flow; 2.0 mg/kg i.v., 1 min
  Changes (%) of basal values, aortic blood flow: 0%
Aortic blood flow; 2.0 mg/kg i.v., 5 min
  Changes (%) of basal values, aortic blood flow: +11.0%
Aortic blood flow; 2.0 mg/kg i.v., 10 min
  Changes (%) of basal values, aortic blood flow: +23.0%
Aortic blood flow; 2.0 mg/kg i.v., 20 min
  Changes (%) of basal values, aortic blood flow: +5.0%
Aortic blood flow; 2.0 mg/kg i.v., 30 min
  Changes (%) of basal values, aortic blood flow: +5.0%
Aortic blood flow; 2.0 mg/kg i.v., imm.
  Changes (%) of basal values, aortic blood flow: -78.0%
